Test results published in patent US10213438B2, “Alkaloid compounds for treating depression, substance addictions, and indications associated with chronic inflammation” (MyMD Pharmaceuticals, Inc., priority 2014, dated 2019).

Legend:
[1] = molecular target: T1, MAO-A (Homo sapiens, UniProt P21397); conditions: cited from earlier work
T1 sequence (P21397 1-527): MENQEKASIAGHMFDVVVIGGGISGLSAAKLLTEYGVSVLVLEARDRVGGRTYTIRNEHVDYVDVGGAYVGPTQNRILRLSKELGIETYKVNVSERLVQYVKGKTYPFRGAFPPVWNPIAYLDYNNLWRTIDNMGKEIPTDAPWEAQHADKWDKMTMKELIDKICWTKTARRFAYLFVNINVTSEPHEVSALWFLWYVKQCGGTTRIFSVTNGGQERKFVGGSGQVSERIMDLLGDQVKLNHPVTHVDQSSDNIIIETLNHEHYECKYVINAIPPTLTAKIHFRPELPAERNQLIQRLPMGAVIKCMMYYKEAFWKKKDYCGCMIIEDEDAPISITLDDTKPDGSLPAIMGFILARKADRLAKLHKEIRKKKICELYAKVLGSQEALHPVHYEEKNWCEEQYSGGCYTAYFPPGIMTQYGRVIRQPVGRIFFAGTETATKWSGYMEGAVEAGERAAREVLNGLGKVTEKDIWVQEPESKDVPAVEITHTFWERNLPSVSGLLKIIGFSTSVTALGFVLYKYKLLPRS

[2] = molecular target: T2, MAO-B (Homo sapiens, UniProt P27338); conditions: cited from earlier work
T2 sequence (P27338 1-520): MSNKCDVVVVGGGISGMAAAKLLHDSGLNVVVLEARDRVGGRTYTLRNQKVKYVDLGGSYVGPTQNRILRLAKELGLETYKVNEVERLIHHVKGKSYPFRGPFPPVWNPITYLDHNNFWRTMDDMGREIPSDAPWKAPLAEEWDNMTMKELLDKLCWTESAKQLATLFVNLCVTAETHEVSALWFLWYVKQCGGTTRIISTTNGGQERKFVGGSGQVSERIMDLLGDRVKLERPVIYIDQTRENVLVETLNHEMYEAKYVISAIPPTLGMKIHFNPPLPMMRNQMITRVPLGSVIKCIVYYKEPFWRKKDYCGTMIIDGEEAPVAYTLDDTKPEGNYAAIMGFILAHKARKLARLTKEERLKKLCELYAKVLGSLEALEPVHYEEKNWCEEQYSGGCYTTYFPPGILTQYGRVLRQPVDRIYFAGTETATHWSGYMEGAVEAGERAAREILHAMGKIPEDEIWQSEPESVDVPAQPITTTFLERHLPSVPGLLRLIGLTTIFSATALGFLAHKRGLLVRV

[3] = system: mice; conditions: cited from earlier work; for effect on dopamine levels: MPTP
[4] = molecular target: T1, MAO-A; experiment: MAO-Glo luminescent assay, MAO-A; type: biochemical; conditions: 1 hour at room temperature, FIG. 5
Source text: This example describes experiments for determining monoamine oxidase (MAO) inhibition for 2-(pyridin-3-yl)-2,3,4,7-tetrahydro-1H-azepine and other alkaloids. MAOs are enzymes located on the outer membrane of mitochondria and are involved in the catabolism of monoamine neurotransmitters. There are two well-characterized isoenzymes: MAO-A, which predominantly catabolizes serotonin and norepinephrine, and MAO-B, which preferentially catabolizes benzylamine and phenylethylamine. Dopamine and tyramine are metabolized by both isoforms.
To detect the activity of MAO, a luminescent method (MAO-Glo Assay kit, from Promega, Cat # V1401) was used. In this method, a MAO substrate (a derivative of beetle luciferin provided in the kit) is mixed with the compound to be tested (in this case, myosmine and control compounds). Then, the MAO enzymes (either A or B, purchased separately) are added to the mixture and incubated with the reaction for 1 hour at room temperature. The MAO enzymes, if not inhibited by the test compound, will convert the substrate into methyl ester luciferin. Finally, a luciferin detection reagent (provided by the kit) is added (20 minutes at room temperature) to stop the MAO reaction and convert methyl ester luciferin into D-luciferin. […] The luminescent signal is measured and recorded using a luminometer. […]

[5] = system: COX-2; experiment: LPS-stimulated RAW cells, protein blot for COX-2 expression; type: cell-based, mouse; conditions: LPS stimulation, compound added after 15 minutes, harvest 24 hours later, FIG. 2
Description: (§1) This example illustrates in vitro studies of 2-(pyridin-3-yl)-2,3,4,7-tetrahydro-1H-azepine. For these experiments, the mouse macrophage cell line RAW 264.7 was used (referred to herein as RAW). The design of the experiments is the following:
(§2) RAW cells were plated in complete medium overnight. The following day, a known inflammatory stimulus (bacterial LPS) was added to the culture wells. Following a 15 minute stimulation, 2-(pyridin-3-yl)-2,3,4,7-tetrahydro-1H-azepine (7-MR) was added to the culture at different concentrations. Twenty-four hours later, RAW cells were harvested and their proteins extracted. Proteins were then run on a polyacrylamide gels and transferred to a nitrocellulose membrane. The membrane was finally probed with commercial antibodies against some classic inflammatory markers.
(§3) The following three inflammatory markers were tested:
COX-2 (antibody made by Cayman Chemical, catalog number 160106)

[6] = system: iNOS; experiment: LPS-stimulated RAW cells, protein blot for iNOS expression; type: cell-based, mouse
Description: as §1, §2, §3
iNOS (SantaCruz Biotechnology, sc-650)

[7] = system: RAW macrophage cells; experiment: assay of cell viability in RAW macrophage cells; type: cell-based, mouse; conditions: RAW 264.7 cells, FIG. 1
Description: as §1
Before testing the anti-inflammatory effect(s) of 2-(pyridin-3-yl)-2,3,4,7-tetrahydro-1H-azepine, an assay of cell viability was performed. […] Toxicity was only seen at higher doses (3 mM and above).

Row | SMILES | MAO inhibitory effects against MAO-A [1] | MAO inhibitory effects against MAO-B [2] | effect on dopamine levels [3] | decrease in dopamine metabolite levels induced by MPTP [3] | also measured
1 | c1cncc([C@@H]2CCCCN2)c1 [anabasine] | exhibited MAO inhibitory effects | exhibited MAO inhibitory effects | – | – | –
2 | c1ccc(-c2ccncc2)cc1 [4-phenylpyridine] | – | – | no significant effect | prevented the decrease | –
3 | c1cncc([C@@H]2CCCN2)c1 [nornicotine] | exhibited MAO inhibitory effects | exhibited MAO inhibitory effects | – | – | –
4 | CN1CCCC1c1cccnc1 (stereo not shown) [nicotine] | – | – | no significant effect | prevented the decrease | –
5 | C1=CCNC(c2cccnc2)CC1 (stereo not shown) [2-(pyridin-3-yl)-2,3,4,7-tetrahydro-1H-azepine] | – | – | – | – | inhibition of MAO-A (activity curve) [4]: found to inhibit MAO-A; expression of COX2 [5]: slightly; expression of iNOS ([6]; LPS stimulation, compound added after 15 minutes, harvest 24 hours later, FIGS. 2 and 3): decreased significantly; suppression of iNOS expression, separate experiments ([6]; confirmation in separate experiments, FIG. 4): specifically suppressed iNOS; concentration not toxic to RAW macrophage cells (cell viability) [7]: up to 2 mM; concentration at which toxicity was seen (cell viability) ([7]; higher doses): ≥ 3000 µM
6 | C1=CCC(c2cccnc2)NC1 (stereo not shown) [anatabine] | exhibited MAO inhibitory effects | exhibited MAO inhibitory effects | – | – | –
